Measurements as given in article PMC6648700 (Molecular pharmaceutics, 2018).

How the values were obtained:
[1] = system: Nocardia asteroides (clinical isolate); experiment: Cell viability IC50 screen; conditions: read-out: IC50 without a β-lactam, Nast
[2] = system: Mycobacterium tuberculosis H37Rv ΔRD1 ΔpanCD strain mc^26030; format: cell-based; conditions: for activity against Mtb alone: auxotrophic Mtb H37Rv; for activity against Mtb with sub-MIC50 dose of meropenem: meropenem 1μg/mL with clavulonic acid
[3] = system: Mycobacterium abscessus PM3386 Δbla; format: cell-based; conditions: GSK690693 50 μM
[4] = system: Mycobacterium smegmatis MC^2155 WT; experiment: Cell viability IC50 screen; conditions: for potentiation of IPA by isoniazid, Msmeg: isoniazid at four times less than the lethal concentration; for potentiation with a sub-MIC50 dose of meropenem to inhibit Msmeg growth: meropenem 1.25μg/mL
[5] = system: Mycobacterium chelonae (clinical isolate); experiment: MIC shift, M. chelonae
[6] = system: M. marinum; experiment: Growth inhibition and β-lactam potentiation, M. marinum; format: cell-based, Mycobacterium marinum
[7] = in vivo; cited from earlier work
[8] = target: PknB 1–331 (Mycobacterium tuberculosis, UniProt P9WI81); format: biochemical; conditions: at concentrations tested
Sequence of PknB 1–331 (P9WI81 1-331): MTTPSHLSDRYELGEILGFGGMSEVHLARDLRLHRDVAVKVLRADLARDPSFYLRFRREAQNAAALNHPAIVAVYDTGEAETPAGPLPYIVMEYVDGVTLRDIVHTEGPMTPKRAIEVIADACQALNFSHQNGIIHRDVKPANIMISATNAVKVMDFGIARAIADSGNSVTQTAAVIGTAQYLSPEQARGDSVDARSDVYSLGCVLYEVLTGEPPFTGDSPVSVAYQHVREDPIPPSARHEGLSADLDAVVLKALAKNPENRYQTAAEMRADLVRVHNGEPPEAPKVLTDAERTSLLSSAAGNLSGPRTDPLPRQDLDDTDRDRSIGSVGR

Structure (SMILES)	IC50 [1] [µM]	activity against Mtb alone [2]	activity against Mtb with sub-MIC50 dose of meropenem [2]	potentiation of IPA by isoniazid, Msmeg [4]	potentiation with a sub-MIC50 dose of meropenem to inhibit Msmeg growth [4]	other results
CCn1c(-c2nonc2N)nc2c(C#CC(C)(C)O)ncc(OCC3CCNCC3)c21 [GSK554170A]	24 to 100					
CCn1c(-c2nonc2N)nc2c(C#CC(C)(C)O)ncc(OC[C@H]3CCCNC3)c21 [GSK690693, 4-(2-(4-amino-1,2,5-oxadiazol-3-yl)-1-ethyl-7-{[(3S)-3-piperidinylmethyl]oxy}−1H-imidazo[4,5-c]pyridin-4-yl)-2-methyl-3-butyn-2-ol]	24 to 100	not active	not active	did not potentiate	able to potentiate	potentiation of kanamycin, Mab [3]: no effect; potentiation of meropenem, Mche ([5]; with 8 μg/mL clavulanate): two-fold; potentiation of meropenem, Mche ([5]; without clavulanate): did not see any potentiation; potentiation of β-lactams, M. marinum ([6]; Fig. S7C): does not potentiate; activity alone, M. marinum growth ([6]; Fig. S7D): effective on its own; side-effects in phase I clinical trials [7]: only moderate side-effects
CCn1c(-c2nonc2N)nc2c(C#CC(C)(C)O)nc(OC[C@H](N)c3ccccc3)cc21 [GSK943949A]	24 to 100					
CCn1c(-c2nonc2N)nc2c(C#CC(C)(C)O)nc(O[C@@H](CN)c3ccccc3)cc21 [GSK1007102B]	24 to 100	able to attenuate the growth	activity was shifted	did not potentiate	the most potent	
CCn1c(-c2nonc2N)nc2cncc(CNC3CCNCC3)c21 [SB-747651A]						PknB inhibitory activity [8]: no inhibitory activity
